# Assay results: US8778871B2 (Takeda Pharmaceutical Company Limited, priority 2004, dated 2014)
# Non-standard residues stand in square brackets, D forms with d. Primed or numbered codes have the meaning given here. No end group written: not given here. *: point of attachment. Phe(4-F) = N[C@@H](Cc1ccc(F)cc1)C(=O)O; 2Nal = N[C@@H](Cc1ccc2ccccc2c1)C(=O)O; Arg(Me) = CNC(=N)NCCC[C@H](N)C(=O)O; dNMeY = CN[C@H](Cc1ccc(O)cc1)C(=O)O; Tic = O=C(O)[C@@H]1Cc2ccccc2CN1; 2Thi = N[C@@H](Cc1cccs1)C(=O)O; Cha = N[C@@H](CC1CCCCC1)C(=O)O; pGlu = O=C1CC[C@@H](C(=O)O)N1; Adipoyl′ = not defined here; Orn = NCCC[C@H](N)C(=O)O; Hexanoyl = CCCCCC(=O)*; Propionyl = CCC(=O)*; azaGly = NNC(=O)O; For = O=C*
# Assays:
# hOT7T175 [1] = biological target: T1, hOT7T175 (Homo sapiens, UniProt Q969F8, L364H); assay type: cell-based; conditions: hOT7T175/CHO, FLIPR, evaluation for 40 seconds after initiation of the reaction
# T1 construct: expressed in transfected cells
# T1 sequence (Q969F8 whole entry L364H): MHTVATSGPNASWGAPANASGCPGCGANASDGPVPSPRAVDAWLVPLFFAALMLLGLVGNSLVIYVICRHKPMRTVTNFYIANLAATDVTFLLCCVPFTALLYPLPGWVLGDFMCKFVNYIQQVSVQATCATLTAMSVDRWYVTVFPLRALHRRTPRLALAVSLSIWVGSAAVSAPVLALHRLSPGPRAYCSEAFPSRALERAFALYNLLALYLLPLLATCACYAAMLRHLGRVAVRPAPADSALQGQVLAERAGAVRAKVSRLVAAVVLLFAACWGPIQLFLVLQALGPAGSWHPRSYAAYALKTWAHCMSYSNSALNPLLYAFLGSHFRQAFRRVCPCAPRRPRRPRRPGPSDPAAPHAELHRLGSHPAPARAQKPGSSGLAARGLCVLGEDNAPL
# Experimental: The intracellular Ca ion level-increasing activity was measured using FLIPR as in TEST EXAMPLE 2.
# [2] = Action of reducing testosterone level in blood in mature male rat (1 mM peptide in 50% DMSO, ALZET osmotic pump); assay type: in vivo; conditions: 1 mM peptide in 50% DMSO aqueous solution, ALZET osmotic pump s.c., six days
# Experimental: The peptide was encapsulated in five ALZET osmotic pump (Model 2001, 0.2 ml of volume, releasing rate 0.001 ml/hr, DURECT Corporation). The ALZET pumps encapsulated with the peptide solution were implanted to dorsal subcutaneous of five male CD (SD) IGS rat at nine weeks age (Charles River Japan, Inc.) anesthesized with ether for one pump to one rat. Separately, for negative controls, the ALZET osmotic pumps encapsulated with distilled water were implanted to five male CD (SD) IGS rat (Charles River Japan, Inc.) The rats were bred for six days under the normal conditions. After weighing, blood was collected by decapitation. To 1 ml of blood, 0.03 ml of aprotinin (Trasylol, Byer) solution containing 0.1 g/ml EDTA 2Na was added. The plasma was isolated by centrifugation at 1,800×g for 25 minutes and collected. The thus obtained plasma, 0.05 ml was effected by radioimmunoassay. (DPC Total Testosterone Kit, Diagnostic Products Corporation) to measure testosterone level in blood of each rat. The value beneath measuring limit of radioimmunoassay (0.04 ng/ml as concentration of plasma) was treated as zero. The mean values for testosterone level of five rats, to which the peptide was given, was calculated and the relative value (percentage) for the mean values of testosterone level of five rats, to which distilled watrer was given, was estimated.
# hOT7T175 [3] = biological target: T2, hOT7T175 (Homo sapiens, UniProt Q969F8); test: Intracellular Ca ion level-increasing activity using FLIPR (180 seconds; specific activity to Metastin (1-54)); assay type: cell-based; conditions: hOT7T175/CHO, change in intracellular calcium ion level for 180 seconds, Tables 21-23
# T2 construct: expressed in transfected cells
# T2 sequence (Q969F8 whole entry L364H): as above
Substance,Specific Act. (EC50/MS10 EC50) (hOT7T175 [1]),Testosterone level in Blood [2],intracellular Ca ion level-increasing activity [specific activity to Metastin (1-54)] (hOT7T175 [3])
Ac-Tyr-Trp-Asn-Thr-Phe-AzaGly-Leu-Arg(Me)-Trp-NH2 (Ac-YWNTF[azaGly]L[Arg(Me)]W-NH2; SMILES CNC(=N)NCCC[C@H](NC(=O)[C@H](CC(C)C)NC(=O)NNC(=O)[C@H](Cc1ccccc1)NC(=O)[C@@H](NC(=O)[C@H](CC(N)=O)NC(=O)[C@H](Cc1c[nH]c2ccccc12)NC(=O)[C@H](Cc1ccc(O)cc1)NC(C)=O)[C@@H](C)O)C(=O)N[C@@H](Cc1c[nH]c2ccccc12)C(N)=O) [Compound No. 664],0.6,6%,–
Ac-Y[dW]NTF[azaGly]L[Arg(Me)]W-NH2 [Compound No. 615],0.7,2%,–
Ac-[dA][dW]NTF[azaGly]L[Arg(Me)]W-NH2 [Compound No. 616],1.1,2%,–
Ac-[dF][dW]NTF[azaGly]L[Arg(Me)]W-NH2 [Compound No. 618],1.6,2%,–
Ac-[dK][dW]NTF[azaGly]L[Arg(Me)]W-NH2 [Compound No. 621],1.9,2%,–
Ac-[dL][dW]NTF[azaGly]L[Arg(Me)]W-NH2 [Compound No. 617],2.4,2%,–
Ac-[dNMeY][dW]NTF[azaGly]L[Arg(Me)]W-NH2 [Compound No. 602],2.4,2%,–
Ac-[dY]WNTF[azaGly]L[Arg(Me)]W-NH2 [Compound No. 623],0.6,2%,–
Ac-[dY][Tic]NTF[azaGly]L[Arg(Me)]W-NH2 [Compound No. 662],0.7,2%,–
Ac-[dY][dA]NTF[azaGly]L[Arg(Me)]W-NH2 [Compound No. 625],2.8,2%,–
Ac-[dY][dE]NTF[azaGly]L[Arg(Me)]W-NH2 [Compound No. 630],4.2,2%,–
Ac-[dY][dF]NTF[azaGly]L[Arg(Me)]W-NH2 [Compound No. 627],1.6,2%,–
Ac-[dY][dK]NTF[azaGly]L[Arg(Me)]W-NH2 [Compound No. 629],3.4,2%,–
Ac-[dY][dL]NTF[azaGly]L[Arg(Me)]W-NH2 [Compound No. 626],2.1,2%,–
Ac-[dY][dW]NTFGL[Arg(Me)]W-NH2 [Compound No. 598],0.3,2%,–
Ac-[dY][dW]NTF[azaGly]LRW-NH2 [Compound No. 600],0.3,2%,–
Ac-[dY][dW]NTF[azaGly]L[Arg(Me)]Y-NH2 [Compound No. 591],1.2,2%,–

Substance,Specific Act. (EC50/MS10 EC50) (hOT7T175 [1]),Testosterone level in Blood [2],intracellular Ca ion level-increasing activity [specific activity to Metastin (1-54)] (hOT7T175 [3])
Ac-[dY][dW]NTF[azaGly]L[Arg(Me)][2Nal]-NH2 [Compound No. 589],2.3,2%,–
Ac-[dY][dW]NTF[azaGly]L[Arg(Me)][2Thi]-NH2 [Compound No. 590],1.4,2%,–
Ac-[dY][dW]NTF[azaGly]L[Arg(Me)][Cha]-NH2 [Compound No. 595],11.4,3%,–
Ac-[dY][dW]NTF[azaGly]L[Arg(Me)][Phe(4-F)]-NH2 [Compound No. 592],1.1,2%,–
Ac-[dY][dW]NTF[azaGly]L[Orn]W-NH2 [Compound No. 599],0.5,2%,–
Ac-[dY][dW]NTF[azaGly]V[Arg(Me)]W-NH2 [Compound No. 642],3.7,2%,–
Ac-[dY][dW]NT[Phe(4-F)][azaGly]L[Arg(Me)]W-NH2 [Compound No. 637],0.8,2%,–
Adipoyl-D-Trp-Asn-Thr-Phe-AzaGly-Leu-Arg(Me)-Trp-NH2 ({Adipoyl′}-[dW]NTF[azaGly]L[Arg(Me)]W-NH2) [Compound No. 671],3.6,2%,–
D-Tyr-D-Pya(4)-Asn-Ser-Phe-AzaGly-Leu-Arg(Me)-PheΨ(CSNH)NH2 [Compound No. 548],1.7,18%,–
D-Tyr-D-Pya(4)-Asn-Thr-Phe-AzaGly-Leu-Arg(Me)-Trp-NH2 [Compound No. 501],1.1,2%,10
D-Tyr-D-Tyr-D-Trp-Asn-Thr-Phe-AzaGly-Leu-Arg(Me)-Trp-NH2 ([dY][dY][dW]NTF[azaGly]L[Arg(Me)]W-NH2; N-terminus assumed; SMILES CNC(=N)NCCC[C@H](NC(=O)[C@H](CC(C)C)NC(=O)NNC(=O)[C@H](Cc1ccccc1)NC(=O)[C@@H](NC(=O)[C@H](CC(N)=O)NC(=O)[C@@H](Cc1c[nH]c2ccccc12)NC(=O)[C@@H](Cc1ccc(O)cc1)NC(=O)[C@H](N)Cc1ccc(O)cc1)[C@@H](C)O)C(=O)N[C@@H](Cc1c[nH]c2ccccc12)C(N)=O) [Compound No. 650],0.6,2%,–
For-[dY][dW]NTF[azaGly]L[Arg(Me)]W-NH2 [Compound No. 612],0.8,2%,–
G[dY][dW]NTF[azaGly]L[Arg(Me)]W-NH2 [Compound No. 648],1.6,2%,–
Hexanoyl-D-Trp-Asn-Thr-Phe-AzaGly-Leu-Arg(Me)-Trp-NH2 (Hexanoyl-[dW]NTF[azaGly]L[Arg(Me)]W-NH2; SMILES CCCCCC(=O)N[C@H](Cc1c[nH]c2ccccc12)C(=O)N[C@@H](CC(N)=O)C(=O)N[C@H](C(=O)N[C@@H](Cc1ccccc1)C(=O)NNC(=O)N[C@@H](CC(C)C)C(=O)N[C@@H](CCCNC(=N)NC)C(=O)N[C@@H](Cc1c[nH]c2ccccc12)C(N)=O)[C@@H](C)O) [Compound No. 667],1.4,2%,–
Propionyl-[dY][dW]NTF[azaGly]L[Arg(Me)]W-NH2 [Compound No. 613],0.4,2%,–
Tyr-D-Tyr-D-Trp-Asn-Thr-Phe-AzaGly-Leu-Arg(Me)-Trp-NH2 (Y[dY][dW]NTF[azaGly]L[Arg(Me)]W-NH2; N-terminus assumed; SMILES CNC(=N)NCCC[C@H](NC(=O)[C@H](CC(C)C)NC(=O)NNC(=O)[C@H](Cc1ccccc1)NC(=O)[C@@H](NC(=O)[C@H](CC(N)=O)NC(=O)[C@@H](Cc1c[nH]c2ccccc12)NC(=O)[C@@H](Cc1ccc(O)cc1)NC(=O)[C@@H](N)Cc1ccc(O)cc1)[C@@H](C)O)C(=O)N[C@@H](Cc1c[nH]c2ccccc12)C(N)=O) [Compound No. 675],0.8,2%,–
pGlu-D-Tyr-D-Trp-Asn-Thr-Phe-AzaGly-Leu-Arg(Me)-Trp-NH2 ([pGlu][dY][dW]NTF[azaGly]L[Arg(Me)]W-NH2; SMILES CNC(=N)NCCC[C@H](NC(=O)[C@H](CC(C)C)NC(=O)NNC(=O)[C@H](Cc1ccccc1)NC(=O)[C@@H](NC(=O)[C@H](CC(N)=O)NC(=O)[C@@H](Cc1c[nH]c2ccccc12)NC(=O)[C@@H](Cc1ccc(O)cc1)NC(=O)[C@@H]1CCC(=O)N1)[C@@H](C)O)C(=O)N[C@@H](Cc1c[nH]c2ccccc12)C(N)=O) [Compound No. 652],0.9,2%,–
